Measured values from US10111873B1, “Dihydropyrimidinone derivatives” (KING SAUD UNIVERSITY, priority 2018, dated 2018).

Row | SMILES | melting point
1 | O=C1NC=C(C(=O)c2ccc(N3CCNCC3)cc2)C(c2ccccc2)N1 (stereo not shown) [DHPM-1, 4-phenyl-5-[4-(piperazin-1-yl)benzoyl]-3,4-dihydropyrimidin-2(1H)-one] | 150 to 152 °C
2 | O=C1NC=C(C(=O)c2ccc(N3CCNCC3)cc2)C(c2ccccc2[N+](=O)[O-])N1 (stereo not shown) [DHPM-2, 4-(2-Nitrophenyl)-5-[4-(piperazin-1-yl)benzoyl]-3,4-dihydropyrimidin-2(1H)-one] | 170 to 172 °C
3 | O=C1NC=C(C(=O)c2ccc(N3CCNCC3)cc2)C(c2ccc([N+](=O)[O-])cc2)N1 (stereo not shown) [DHPM-3, 4-(4-Nitrophenyl)-5-[4-(piperazin-1-yl)benzoyl]-3,4-dihydropyrimidin-2(1H)-one] | 175 to 177 °C
4 | O=C1NC=C(C(=O)c2ccc(N3CCNCC3)cc2)C(c2cccc([N+](=O)[O-])c2)N1 (stereo not shown) [DHPM-4, 4-(3-Nitrophenyl)-5-[4-(piperazin-1-yl)benzoyl]-3,4-dihydropyrimidin-2(1H)-one] | 180 to 182 °C
5 | O=C1NC=C(C(=O)c2ccc(N3CCNCC3)cc2)C(c2ccc(Cl)cc2)N1 (stereo not shown) [DHPM-5, 4-(4-Chlorophenyl)-5-[4-(piperazin-1-yl)benzoyl]-3,4-dihydropyrimidin-2(1H)-one] | 160 to 162 °C
6 | COc1ccccc1C1NC(=O)NC=C1C(=O)c1ccc(N2CCNCC2)cc1 (stereo not shown) [DHPM-6, 4-(2-methoxyphenyl)-5-[4-(piperazin-1-yl)benzoyl]-3,4-dihydropyrimidin-2(1H)-one] | 120 to 122 °C
7 | O=C1NC=C(C(=O)c2ccc(N3CCNCC3)cc2)C(c2ccc(O)cc2)N1 (stereo not shown) [DHPM-7, 4-(4-Hydroxyphenyl)-5-[4-(piperazin-1-yl)benzoyl]-3,4-dihydropyrimidin-2(1H)-one] | 210 to 212 °C
8 | O=C1NC=C(C(=O)c2ccc(N3CCNCC3)cc2)C(c2cccc(O)c2)N1 (stereo not shown) [DHPM-8, 4-(3-Hydroxyphenyl)-5-[4-(piperazin-1-yl)benzoyl]-3,4-dihydropyrimidin-2(1H)-one] | 158 to 160 °C
9 | COc1cccc(C2NC(=O)NC=C2C(=O)c2ccc(N3CCNCC3)cc2)c1 (stereo not shown) [DHPM-9, 4-(3-methoxyphenyl)-5-[4-(piperazin-1-yl)benzoyl]-3,4-dihydropyrimidin-2(1H)-one] | 118 to 120 °C

Now from value to compound:

Row | melting point | SMILES
10 | 88 to 90 °C | CCOc1cccc(C2NC(=O)NC=C2C(=O)c2ccc(N3CCNCC3)cc2)c1 (stereo not shown) [DHPM-10, 4-(3-Ethoxyphenyl)-5-[4-(piperazin-1-yl)benzoyl]-3,4-dihydropyrimidin-2(1H)-one]
11 | 258 to 260 °C | O=C1NC=C(C(=O)c2ccc(N3CCOCC3)cc2)C(c2ccccc2)N1 (stereo not shown) [DHPM-11, 5-[4-(morpholin-4-yl)benzoyl]-4-phenyl-3,4-dihydropyrimidin-2(1H)-one]
12 | 198 to 200 °C | O=C1NC=C(C(=O)c2ccc(N3CCOCC3)cc2)C(c2ccccc2[N+](=O)[O-])N1 (stereo not shown) [DHPM-12, 5-[4-(morpholin-4-yl)benzoyl]-4-(2-nitrophenyl)-3,4-dihydropyrimidin-2(1H)-one]
13 | 202 to 204 °C | O=C1NC=C(C(=O)c2ccc(N3CCOCC3)cc2)C(c2ccc([N+](=O)[O-])cc2)N1 (stereo not shown) [DHPM-13, 5-[4-(morpholin-4-yl)benzoyl]-4-(4-nitrophenyl)-3,4-dihydropyrimidin-2(1H)-one]
14 | 205 to 207 °C | O=C1NC=C(C(=O)c2ccc(N3CCOCC3)cc2)C(c2cccc([N+](=O)[O-])c2)N1 (stereo not shown) [DHPM-14, 5-[4-(morpholin-4-yl)benzoyl]-4-(3-nitrophenyl)-3,4-dihydropyrimidin-2(1H)-one]
15 | 288 to 290 °C | O=C1NC=C(C(=O)c2ccc(N3CCOCC3)cc2)C(c2ccc(Cl)cc2)N1 (stereo not shown) [DHPM-15, 4-(4-chlorophenyl)-5-[4-(morpholin-4-yl)benzoyl]-3,4-dihydropyrimidin-2(1H)-one]
16 | 178 to 180 °C | COc1ccccc1C1NC(=O)NC=C1C(=O)c1ccc(N2CCOCC2)cc1 (stereo not shown) [DHPM-16, 4-(2-methoxyphenyl)-5-[4-(morpholin-4-yl)benzoyl]-3,4-dihydropyrimidin-2(1H)-one]
17 | 118 to 120 °C | O=C1NC=C(C(=O)c2ccc(N3CCOCC3)cc2)C(c2ccc(O)cc2)N1 (stereo not shown) [DHPM-17, 4-(4-hydroxyphenyl)-5-[4-(morpholin-4-yl)benzoyl]-3,4-dihydropyrimidin-2(1H)-one]
18 | 120 to 122 °C | O=C1NC=C(C(=O)c2ccc(N3CCOCC3)cc2)C(c2cccc(O)c2)N1 (stereo not shown) [DHPM-18, 4-(3-hydroxyphenyl)-5-[4-(morpholin-4-yl)benzoyl]-3,4-dihydropyrimidin-2(1H)-one]
19 | 200 to 202 °C | CCOc1ccc(C2NC(=O)NC=C2C(=O)c2ccc(N3CCOCC3)cc2)cc1 (stereo not shown) [DHPM-20, 4-(4-ethoxyphenyl)-5-[4-(morpholin-4-yl)benzoyl]-3,4-dihydropyrimidin-2(1H)-one]
